Results from ChEMBL document CHEMBL1153930, “(-)-Dibromophakellin: an alpha2B adrenoceptor agonist isolated from the Australian marine sponge, Acanthella costata” (Bioorg Med Chem, 2009).
Active and inactive are the calls of the source. The calls are words filed in the database; no cut-off is given here.

How the values were obtained:
[1] = target: T1, Alpha-2B adrenergic receptor (Homo sapiens) (UniProt P18089); assay: Agonist activity at human adrenergic alpha2B receptor expressed in HEK293 cells coexpressing Gqi5 protein up to 83 uM by FLIPR assay; type: functional, cell-based
T1 sequence (whole entry): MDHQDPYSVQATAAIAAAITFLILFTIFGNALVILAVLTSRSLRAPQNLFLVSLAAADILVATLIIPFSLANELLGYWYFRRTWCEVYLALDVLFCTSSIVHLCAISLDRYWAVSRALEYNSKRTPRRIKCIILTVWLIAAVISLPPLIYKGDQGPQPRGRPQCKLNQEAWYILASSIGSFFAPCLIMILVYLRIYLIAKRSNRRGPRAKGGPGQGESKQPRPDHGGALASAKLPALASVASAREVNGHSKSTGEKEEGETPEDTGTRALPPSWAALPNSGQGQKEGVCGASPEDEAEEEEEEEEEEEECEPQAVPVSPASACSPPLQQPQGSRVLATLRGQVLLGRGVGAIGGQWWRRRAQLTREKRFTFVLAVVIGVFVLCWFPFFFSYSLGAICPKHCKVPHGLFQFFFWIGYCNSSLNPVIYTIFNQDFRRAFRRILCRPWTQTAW

[2] = target: T2, Alpha-2B adrenergic receptor (Homo sapiens, UniProt P18089); assay: Agonist activity at human adrenergic alpha2B receptor expressed in HEK293 cells coexpressing Gqi5 protein by FLIPR assay; type: functional, cell-based
T2 sequence (P18089 whole entry): T1 sequence (whole entry)

Compound	Activity [1]	EC50 [2]
NC1=N[C@]23CCCN2C(=O)c2cc(Br)cn2[C@@H]3N1	inactive	
NC1=N[C@]23CCCN2C(=O)c2cc(-c4ccccc4)c(-c4ccccc4)n2[C@@H]3N1	inactive	
NC1=N[C@H]2n3c(cc(Br)c3Br)C(=O)N3CCC[C@]23N1 [DIBROMOPHAKELLIN]		4.2 µM
NC1=N[C@]23CCCN2C(=O)c2cc(Br)c(-c4ccccc4)n2[C@@H]3N1	inactive	
NC1=N[C@]23CCCN2C(=O)c2cccn2[C@@H]3N1	inactive	
